# Assay results: patent US11028078B2 (The Johns Hopkins University, priority 2011, dated 2021)
# Where two headings read alike, the source gives them in different places.
# Tests used:
# HUVEC = HUVEC proliferation assay ([3H]thymidine incorporation); format: cell-based, human; conditions: HUVEC; for IC50: Homo sapiens; for Proliferation (IC50/IC50 Itra): Table 7, relative to itraconazole
# In short: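 Pooled HUVEC at passage eight or lower, grown in EGM-2 medium; proliferation measured by [3H]thymidine incorporation as in an earlier published protocol.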
# CYP3A4 = biological target: T1, CYP3A4 (Homo sapiens, UniProt P08684); assay: CYP3A4 enzyme assay (Vivid CYP3A4 Green Screening Kit); format: in vitro ADME; conditions: for CYP3A4 Inhibition (compared to intracozanole at 1 μm): % enzyme inhibition at 1 μM drug / % enzyme inhibition at 1 μM itraconazole; for CYP3A4 inhibition in the initial screening: 1 μM
# T1 construct: purchased ThermoFisher P2857; host or cells: baculosomes
# Protocol: And CYP3A4 inhibition was initially determined using a cell-free fluorescence-based assay at a final concentration of 1 μM (Table 7).
# CYP3A4 enzyme assay. CYP3A4 enzyme activity was tested using Vivid™ CYP3A4 Green Screening Kit (ThermoFisher, #P2857) using the manufacturer's protocol. Briefly, CYP3A4 baculosomes and drugs were incubated 10 min at 37° C. Then Vivid® Substrates were added and the fluorescence (ex/em:485/520) were read every 1 min for 60 minute.
# [1] = 3H thymidine incorporation, in μM, read-out: Proliferation IC50
# [2] = read-out: IC50 for inhibition of HUVEC proliferation
# T1 sequence (P08684 whole entry): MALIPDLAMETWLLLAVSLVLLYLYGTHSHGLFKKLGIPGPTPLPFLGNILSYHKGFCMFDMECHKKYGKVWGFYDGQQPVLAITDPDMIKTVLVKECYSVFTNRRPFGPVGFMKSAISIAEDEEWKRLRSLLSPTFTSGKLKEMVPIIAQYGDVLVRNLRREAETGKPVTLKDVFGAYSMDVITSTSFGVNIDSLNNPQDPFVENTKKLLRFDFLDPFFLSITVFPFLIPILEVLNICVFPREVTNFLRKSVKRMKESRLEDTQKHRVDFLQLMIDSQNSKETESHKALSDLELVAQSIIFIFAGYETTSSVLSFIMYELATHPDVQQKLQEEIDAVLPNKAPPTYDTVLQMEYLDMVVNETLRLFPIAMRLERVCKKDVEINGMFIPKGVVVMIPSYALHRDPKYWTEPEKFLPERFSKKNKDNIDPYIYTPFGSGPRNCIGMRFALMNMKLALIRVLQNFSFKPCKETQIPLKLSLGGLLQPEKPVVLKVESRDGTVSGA
SMILES,CYP3A4 Inhibition (compared to intracozanole at 1 μm) (CYP3A4),CYP3A4 inhibition in the initial screening (CYP3A4),IC50 (HUVEC; [1]) [µM],Proliferation (IC50/IC50 Itra) (HUVEC),IC50 (HUVEC; [2]) [µM]
"CCC(C)n1ncn(-c2ccc(N3CCN(c4ccc(OC[C@@H]5CO[C@@](CN6CCNCC6)(c6ccc(Cl)cc6Cl)O5)cc4)CC3)cc2)c1=O (stereo partly drawn) [Compound 266, 1-(sec-butyl)-4-(4-(4-(4-(((2S,4R)-2-(2,4-dichlorophenyl)-2-(piperazin-1-ylmethyl)-1,3-dioxolan-4-yl)methoxy)phenyl)piperazin-1-yl)phenyl)-1H-1,2,4-triazol-5(4H)-one]",1.09,,0.608,,
"CCC(C)n1ncn(-c2ccc(N3CCN(c4ccc(OC[C@@H]5CO[C@@](CN6CCOCC6)(c6ccc(Cl)cc6Cl)O5)cc4)CC3)cc2)c1=O (stereo partly drawn) [Compound 263, 1-(sec-butyl)-4-(4-(4-(4-(((2S,4R)-2-(2,4-dichlorophenyl)-2-(morpholinomethyl)-1,3-dioxolan-4-yl)methoxy)phenyl)piperazin-1-yl)phenyl)-1H-1,2,4-triazol-5(4H)-one]",0.20,,1.18,,
"CCC(C)n1ncn(-c2ccc(N3CCN(c4ccc(OC[C@@H]5CO[C@@](Cn6c(C)cnc6C)(c6ccc(Cl)cc6Cl)O5)cc4)CC3)cc2)c1=O (stereo partly drawn) [Compound 241, 1-(sec-butyl)-4-(4-(4-(4-(((2S,4R)-2-(2,4-dichlorophenyl)-2-((2,5-dimethyl-1H-imidazol-1-yl)methyl)-1,3-dioxolan-4-yl)methoxy)phenyl)piperazin-1-yl)phenyl)-1H-1,2,4-triazol-5(4H)-one]",0.27,,0.492,3.1,
"CCC(C)n1ncn(-c2ccc(N3CCN(c4ccc(OC[C@@H]5CO[C@@](CBr)(c6ccc(Cl)cc6Cl)O5)cc4)CC3)cc2)c1=O (stereo partly drawn) [Compound 257, 4-(4-(4-(4-(((2S,4R)-2-(bromomethyl)-2-(2,4-dichlorophenyl)-1,3-dioxolan-4-yl)methoxy)phenyl)piperazin-1-yl)phenyl)-1-sec-butyl-1H-1,2,4-triazol-5(4H)-one]",0.03,,0.512,,
"CCC(C)n1ncn(-c2ccc(N3CCN(c4ccc(OC[C@@H]5CO[C@@](Cn6ncnn6)(c6ccc(Cl)cc6Cl)O5)cc4)CC3)cc2)c1=O (stereo partly drawn) [Compound 249, 4-(4-(4-(4-(((2S,4R)-2-((2H-tetrazol-2-yl)methyl)-2-(2,4-dichlorophenyl)-1,3-dioxolan-4-yl)methoxy)phenyl)piperazin-1-yl)phenyl)-1-sec-butyl-1H-1,2,4-triazol-5(4H)-one]",0.2,,0.102,0.6,
"CCC(C)n1ncn(-c2ccc(N3CCN(c4ccc(OC[C@@H]5CO[C@@](Cc6ccccc6)(c6ccc(Cl)cc6Cl)O5)cc4)CC3)cc2)c1=O (stereo partly drawn) [Compound 260, 4-(4-(4-(4-(((2R,4R)-2-benzyl-2-(2,4-dichlorophenyl)-1,3-dioxolan-4-yl)methoxy)phenyl)piperazin-1-yl)phenyl)-1-sec-butyl-1H-1,2,4-triazol-5(4H)-one]",No inhibition,,,,
"CCC(C)n1ncn(-c2ccc(N3CCN(c4ccc(OC[C@@H]5COC(c6ccc(Cl)cc6Cl)O5)cc4)CC3)cc2)c1=O (stereo partly drawn) [Compound 262, 1-sec-butyl-4-(4-(4-(4-(((4R)-2-(2,4-dichlorophenyl)-1,3-dioxolan-4-yl)methoxy)phenyl)piperazin-1-yl)phenyl)-1H-1,2,4-triazol-5(4H)-one]",No inhibition,,0.328,,
"CCC(C)n1ncn(-c2ccc(N3CCN(c4ccc(OC[C@@H]5CO[C@@](Cn6ccnc6C)(c6ccc(Cl)cc6Cl)O5)cc4)CC3)cc2)c1=O (stereo partly drawn) [Compound 235, 1-sec-butyl-4-(4-(4-(4-(((2S,4R)-2-(2,4-dichlorophenyl)-2-((2-methyl-1H-imidazol-1-yl)methyl)-1,3-dioxolan-4-yl)methoxy)phenyl)piperazin-1-yl)phenyl)-1H-1,2,4-triazol-5(4H)-one]",0.85,,0.173,,
"CCC(C)n1ncn(-c2ccc(N3CCN(c4ccc(OC[C@@H]5CO[C@@](Cn6ccnc6C(C)C)(c6ccc(Cl)cc6Cl)O5)cc4)CC3)cc2)c1=O (stereo partly drawn) [Compound 245, 1-sec-butyl-4-(4-(4-(4-(((2S,4R)-2-(2,4-dichlorophenyl)-2-((2-isopropyl-1H-imidazol-1-yl)methyl)-1,3-dioxolan-4-yl)methoxy)phenyl)piperazin-1-yl)phenyl)-1H-1,2,4-triazol-5(4H)-one]",0.07,,0.068,0.4,
"CCC(C)n1ncn(-c2ccc(N3CCN(c4ccc(OC[C@@H]5CO[C@@](Cn6cnc(C(F)(F)F)n6)(c6ccc(Cl)cc6Cl)O5)cc4)CC3)cc2)c1=O (stereo partly drawn) [Compound 251, 1-sec-butyl-4-(4-(4-(4-(((2S,4R)-2-(2,4-dichlorophenyl)-2-((3-(trifluoromethyl)-1H-1,2,4-triazol-1-yl)methyl)-1,3-dioxolan-4-yl)methoxy)phenyl)piperazin-1-yl)phenyl)-1H-1,2,4-triazol-5(4H)-one]",No inhibition,eliminated CYP3A4 inhibition,0.272,,0.27
"CCC(C)n1ncn(-c2ccc(N3CCN(c4ccc(OC[C@@H]5CO[C@@](Cn6cccn6)(c6ccc(Cl)cc6Cl)O5)cc4)CC3)cc2)c1=O (stereo partly drawn) [Compound 234, 4-(4-(4-(4-(((2S,4R)-2-((1H-pyrazol-1-yl)methyl)-2-(2,4-dichlorophenyl)-1,3-dioxolan-4-yl)methoxy)phenyl)piperazin-1-yl)phenyl)-1-sec-butyl-1H-1,2,4-triazol-5(4H)-one]",No inhibition,,0.307,,

# Continued, in another order:
CYP3A4 Inhibition (compared to intracozanole at 1 μm) (CYP3A4),CYP3A4 inhibition in the initial screening (CYP3A4),SMILES,IC50 (HUVEC; [1]) [µM],Proliferation (IC50/IC50 Itra) (HUVEC),IC50 (HUVEC; [2]) [µM]
0.22,,"CCC(C)n1ncn(-c2ccc(N3CCN(c4ccc(OC[C@@H]5CO[C@@](Cn6nnnc6-c6ccccc6)(c6ccc(Cl)cc6Cl)O5)cc4)CC3)cc2)c1=O (stereo partly drawn) [Compound 253, 1-sec-butyl-4-(4-(4-(4-(((2S,4R)-2-(2,4-dichlorophenyl)-2-((5-phenyl-1H-tetrazol-1-yl)methyl)-1,3-dioxolan-4-yl)methoxy)phenyl)piperazin-1-yl)phenyl)-1H-1,2,4-triazol-5(4H)-one]",0.119,,
0.45,,"CCC(C)n1ncn(-c2ccc(N3CCN(c4ccc(OC[C@@H]5CO[C@@](Cn6cc(C)nc6C)(c6ccc(Cl)cc6Cl)O5)cc4)CC3)cc2)c1=O (stereo partly drawn) [Compound 240, 1-(sec-butyl)-4-(4-(4-(4-(((2S,4R)-2-(2,4-dichlorophenyl)-2-((2,4-dimethyl-1H-imidazol-1-yl)methyl)-1,3-dioxolan-4-yl)methoxy)phenyl)piperazin-1-yl)phenyl)-1H-1,2,4-triazol-5(4H)-one]",0.492,,
0.08,,"CCC(C)n1ncn(-c2ccc(N3CCN(c4ccc(OC[C@@H]5CO[C@@](Cn6nnnc6C)(c6ccc(Cl)cc6Cl)O5)cc4)CC3)cc2)c1=O (stereo partly drawn) [Compound 252, 1-sec-butyl-4-(4-(4-(4-(((2S,4R)-2-(2,4-dichlorophenyl)-2-((5-methyl-1H-tetrazol-1-yl)methyl)-1,3-dioxolan-4-yl)methoxy)phenyl)piperazin-1-yl)phenyl)-1H-1,2,4-triazol-5(4H)-one]",0.101,,
0.27,,"CCC(C)n1ncn(-c2ccc(N3CCN(c4ccc(OC[C@@H]5CO[C@@](Cn6ccnc6-c6ccccc6)(c6ccc(Cl)cc6Cl)O5)cc4)CC3)cc2)c1=O (stereo partly drawn) [Compound 246, 1-sec-butyl-4-(4-(4-(4-(((2S,4R)-2-(2,4-dichlorophenyl)-2-((2-phenyl-1H-imidazol-1-yl)methyl)-1,3-dioxolan-4-yl)methoxy)phenyl)piperazin-1-yl)phenyl)-1H-1,2,4-triazol-5(4H)-one]",0.136,,
0.36,,"CCC(C)n1ncn(-c2ccc(N3CCN(c4ccc(OC[C@@H]5CO[C@@](Cn6cnc(C)n6)(c6ccc(Cl)cc6Cl)O5)cc4)CC3)cc2)c1=O (stereo partly drawn) [Compound 250, 1-sec-butyl-4-(4-(4-(4-(((2S,4R)-2-(2,4-dichlorophenyl)-2-((3-methyl-1H-1,2,4-triazol-1-yl)methyl)-1,3-dioxolan-4-yl)methoxy)phenyl)piperazin-1-yl)phenyl)-1H-1,2,4-triazol-5(4H)-one]",0.272,,0.27
No inhibition,eliminated,"CCC(C)n1ncn(-c2ccc(N3CCN(c4ccc(OC[C@@H]5CO[C@@](Cn6cc(C(F)(F)F)nc6C)(c6ccc(Cl)cc6Cl)O5)cc4)CC3)cc2)c1=O (stereo partly drawn) [Compound 239, 1-(sec-butyl)-4-(4-(4-(4-(((2S,4R)-2-(2,4-dichlorophenyl)-2-((2-methyl-4-(trifluoromethyl)-1H-imidazol-1-yl)methyl)-1,3-dioxolan-4-yl)methoxy)phenyl)piperazin-1-yl)phenyl)-1H-1,2,4-triazol-5(4H)-one]",0.441,,
0.08,,"CCc1nccn1C[C@@]1(c2ccc(Cl)cc2Cl)OC[C@@H](COc2ccc(N3CCN(c4ccc(-n5cnn(C(C)CC)c5=O)cc4)CC3)cc2)O1 (stereo partly drawn) [Compound 243, 1-(sec-butyl)-4-(4-(4-(4-(((2S,4R)-2-(2,4-dichlorophenyl)-2-((2-ethyl-1H-imidazol-1-yl)methyl)-1,3-dioxolan-4-yl)methoxy)phenyl)piperazin-1-yl)phenyl)-1H-1,2,4-triazol-5(4H)-one]",0.225,,
